These results are taken from US9783488B2 (CHDI Foundation, Inc., priority 2013, dated 2017).

pIC50: −log10 of the molar value.

The pIC50 is −log10 of the IC50, conventionally taken in molar units.

The test system of experiment [1] is cellular histone deacetylase enzymatic activity in Jurkat E6-1 cells. In words: Inhibition of cellular HDAC activity in Jurkat E6-1 cells, fluorogenic substrate Boc-Lys(Tfa)-AMC. In kind it is cell-based. As to conditions: Homo sapiens, read-out: Cell IC50. Summed up:
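Jurkat E6.1 cells (75,000/well) were pre-treated with compound for 2 h at 37 °C, then given Boc-Lys(Tfa)-AMC (5× stock 500 μM) for 3 h. Cells were lysed with trypsin-containing buffer overnight, and released AMC fluorescence was read at Ex 355/Em 460 nm over a 16-point dilution series.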

Experiment [2] has as its target human catalytic domain HDAC4 protein (amino acids 648-1032) (Homo sapiens (Human), UniProt P56524). In words: Inhibition of HDAC4 catalytic domain enzymatic activity, fluorogenic substrate Boc-Lys(Tfa)-AMC. The note with it: HDAC4 catalytic domain enzyme, read-out: Biochemical HDAC4 IC50.

human catalytic domain HDAC4 protein (amino acids 648-1032), sequence (P56524 648-1032): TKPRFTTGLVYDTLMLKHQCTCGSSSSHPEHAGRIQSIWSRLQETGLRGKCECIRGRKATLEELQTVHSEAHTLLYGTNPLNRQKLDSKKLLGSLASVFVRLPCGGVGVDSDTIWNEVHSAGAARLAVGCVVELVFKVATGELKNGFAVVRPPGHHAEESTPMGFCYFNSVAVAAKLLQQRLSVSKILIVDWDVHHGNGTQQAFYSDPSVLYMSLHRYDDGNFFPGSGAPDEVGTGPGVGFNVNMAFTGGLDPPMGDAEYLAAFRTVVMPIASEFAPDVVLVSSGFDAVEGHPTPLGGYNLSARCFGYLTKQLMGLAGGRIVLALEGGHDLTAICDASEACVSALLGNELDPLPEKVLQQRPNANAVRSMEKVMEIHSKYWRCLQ

For `Cc1cccc(F)c1C1(C(=O)NO)CCCC1` [Example 37, 1-(2-Fluoro-6-methylphenyl)-N-hydroxycyclopentanecarboxamide], the results for the pIC50 in experiment [1] and in experiment [2] were 4.92 and 5.82, respectively.
On to `O=C(NO)C1(c2cccc3ccsc23)CCCC1` [Example 38, 1-(Benzo[b]thiophen-7-yl)-N-hydroxycyclopentanecarboxamide], for which the pIC50 in experiment [1] was 5.34; in experiment [2] it was 6.21.
Regarding `O=C(NO)[C@@]1(c2ccccc2)CC[C@@H](c2cncc(F)c2)C1` [Example 41, (1S,3R)-3-(5-fluoropyridin-3-yl)-N-hydroxy-1-phenylcyclopentanecarboxamide], the negative logarithm of the IC50 (pIC50) in experiment [1] was 4.89; in experiment [2] it was 5.72.
On the same counts, the results for `O=C(NO)[C@@]1(c2ccccc2)CC[C@H](c2cncc(F)c2)C1` [Example 42, (1S,3S)-3-(5-fluoropyridin-3-yl)-N-hydroxy-1-phenylcyclopentanecarboxamide] are 5.14 and 5.85.
On to `Cc1c(F)cccc1[C@]1(C(=O)NO)CC[C@@H](c2cc(F)cnc2C2CC2)C1` [Example 43, (1S,3R)-3-(2-cyclopropyl-5-fluoropyridin-3-yl)-1-(3-fluoro-2-methylphenyl)-N-hydroxycyclopentanecarboxamide], for which the pIC50 in experiment [1] was 6.21; in experiment [2], 6.62.
On the same counts, the results for `Cc1c(F)cccc1[C@]1(C(=O)NO)CC[C@@H](c2cc3c(cnn3C)cc2F)C1` [Example 81, (1S,3R)-3-(5-Fluoro-1-methyl-1H-indazol-6-yl)-1-(3-fluoro-2-methylphenyl)-N-hydroxycyclopentanecarboxamide] are 6.24 and 6.82.
Take `Cc1c(F)cccc1[C@]1(C(=O)NO)CC[C@@H](Oc2ccc3cnn(C)c3c2)C1` [Example 91, (1S,3R)-1-(3-Fluoro-2-methylphenyl)-N-hydroxy-3-((1-methyl-1H-indazol-6-yl)oxy)cyclopentanecarboxamide]: the results for the pIC50 in experiment [1] and in experiment [2] were 5.80 and 6.54, respectively.
For `Cc1c(F)cccc1[C@]1(C(=O)NO)CC[C@H](Oc2ccc3cnn(C)c3c2)C1` [Example 92, (1S,3S)-1-(3-Fluoro-2-methylphenyl)-N-hydroxy-3-((1-methyl-1H-indazol-6-yl)oxy)cyclopentanecarboxamide], in that order: 6.33 and 6.85.
On the same counts, the results for `Cc1c(F)cccc1[C@]1(C(=O)NO)CC[C@@H](Oc2cncc(F)c2)C1` [Example 93, (1S,3R)-1-(3-fluoro-2-methylphenyl)-3-((5-fluoropyridin-3-yl)oxy)-N-hydroxycyclopentanecarboxamide] are 5.72 and 6.70.
For `Cc1c(F)cccc1[C@]1(C(=O)NO)CC[C@H](Oc2cncc(F)c2)C1` [Example 94, (1S,3S)-1-(3-fluoro-2-methylphenyl)-3-((5-fluoropyridin-3-yl)oxy)-N-hydroxycyclopentanecarboxamide], in that order: 6.08 and 6.80.
As for `Cc1c(F)cccc1[C@]1(C(=O)NO)CC[C@@H](Oc2ccccc2)C1` [Example 95, (1S,3R)-1-(3-fluoro-2-methylphenyl)-N-hydroxy-3-phenoxycyclopentanecarboxamide], the pIC50 was 5.82 in experiment [1] and 6.80 in experiment [2].
For `Cc1c(F)cccc1[C@]1(C(=O)NO)CC[C@H](Oc2ccccc2)C1` [Example 96, (1S,3S)-1-(3-fluoro-2-methylphenyl)-N-hydroxy-3-phenoxycyclopentanecarboxamide], the pIC50 in experiment [1] is 6.59; in experiment [2], 6.89.
On to `Cc1c(F)cccc1[C@]1(C(=O)NO)CC[C@H](OCc2ccc(F)cc2)C1` [Example 97, (1S,3S)-1-(3-fluoro-2-methylphenyl)-3-((4-fluorobenzyl)oxy)-N-hydroxycyclopentanecarboxamide], for which the pIC50 in experiment [1] is 6.18; in experiment [2], 6.62.
For `O=C(NO)C1(c2ccccc2)CCCCC1` [Example 98, 1-phenyl-N-hydroxycyclohexylcarboxamide], in that order: under 4.30 and under 4.30.
Consider `Cc1c(F)cccc1[C@]1(C(=O)NO)CC[C@H](c2cncc(F)c2)CC1` [Example 99, (1r,4r)-1-(3-fluoro-2-methylphenyl)-4-(5-fluoropyridin-3-yl)-N-hydroxycyclohexanecarboxamide], for which the pIC50 is 4.42 in experiment [1] and 5.39 in experiment [2].
`Cc1c(F)cccc1[C@]1(C(=O)NO)CC[C@@H](c2cncc(F)c2)CC1` [Example 100, (1s,4s)-1-(3-Fluoro-2-methylphenyl)-4-(5-fluoropyridin-3-yl)-N-hydroxycyclohexanecarboxamide]: the pIC50 in experiment [1] is 6.43; in experiment [2], 6.18.
For the compound `Cc1c(F)cccc1[C@]1(C(=O)NO)CC[C@H](Oc2ccccc2)CC1` [Example 101, (1r,4r)-1-(3-fluoro-2-methylphenyl)-N-hydroxy-4-phenoxycyclohexanecarboxamide], the pIC50 in experiment [1] is 6.27; in experiment [2], 6.17.
Consider `Cc1c(F)cccc1[C@]1(C(=O)NO)CC[C@@H](OCc2ccc(F)cc2)CC1` [Example 102, (1s,4s)-1-(3-fluoro-2-methylphenyl)-4-((4-fluorobenzyl)oxy)-N-hydroxycyclohexanecarboxamide], for which the pIC50 in experiment [1] was 4.31; in experiment [2] it was 4.85.
Regarding `Cc1c(F)cccc1[C@]1(C(=O)NO)CC[C@@H](c2ccc3cnn(C)c3c2)CC1` [Example 103, (1s,4s)-1-(3-fluoro-2-methylphenyl)-N-hydroxy-4-(1-methyl-1H-indazol-6-yl)cyclohexanecarboxamide], the pIC50 in experiment [1] was 4.59; in experiment [2], 5.38.
For `Cc1c(F)cccc1[C@]1(C(=O)NO)CC[C@H](c2ccc3cnn(C)c3c2)CC1` [Example 104, (1r,4r)-1-(3-fluoro-2-methylphenyl)-N-hydroxy-4-(1-methyl-1H-indazol-6-yl)cyclohexanecarboxamide], in that order: 6.19 and 6.02.
With `O=C(NO)C1(c2ccccc2)CCCCCC1` [Example 106, N-hydroxy-1-phenylcycloheptanecarboxamide], the figures for the pIC50 in experiment [1] and in experiment [2] were 4.39 and 5.16, respectively.
For `Cc1c(F)cccc1C1(C(=O)NO)CCCCCC1` [Example 107, 1-(3-Fluoro-2-methylphenyl)-N-hydroxycycloheptanecarboxamide], the pIC50 in experiment [1] and in experiment [2] was under 4.30 in each case.
